Test results: ChEMBL document CHEMBL3797052 (Eur J Med Chem, 2016)

Tests used:
Type in all cases: functional
[1] = Antiproliferative activity against human IGROV1 cells assessed as growth inhibition after 48 hrs by sulforhodamine B assay; settings: IGROV-1, 48 h; for CC50: read-out: LC50 (the source's name)
[2] = Antiproliferative activity against human OVCAR3 cells assessed as growth inhibition after 48 hrs by sulforhodamine B assay; settings: OVCAR-3, 48 h
[3] = test system: ACHN; assay: Antiproliferative activity against human ACHN cells assessed as growth inhibition after 48 hrs by sulforhodamine B assay
[4] = Antiproliferative activity against human SW620 cells assessed as growth inhibition after 48 hrs by sulforhodamine B assay; settings: SW-620, 48 h; for CC50: read-out: LC50 (the source's name)
[5] = Antiproliferative activity against human BT549 cells assessed as growth inhibition after 48 hrs by sulforhodamine B assay; settings: BT-549, 48 h; for CC50: read-out: LC50 (the source's name)
[6] = Antiproliferative activity against human TK10 cells assessed as growth inhibition after 48 hrs by sulforhodamine B assay; settings: TK-10, 48 h; for CC50: read-out: LC50 (the source's name)
[7] = Antiproliferative activity against human UACC257 cells assessed as growth inhibition after 48 hrs by sulforhodamine B assay; settings: UACC-257, 48 h; for CC50: read-out: LC50 (the source's name)
[8] = Antiproliferative activity against human Hs 578T cells assessed as growth inhibition after 48 hrs by sulforhodamine B assay; settings: for CC50: read-out: LC50 (the source's name)
[9] = test system: ACHN; assay: Antiproliferative activity against human ACHN cells assessed as cell growth at 10^-4 M after 48 hrs by sulforhodamine B assay; settings: read-out: Activity
[10] = Antiproliferative activity against human IGROV1 cells assessed as cell growth at 10^-8 M after 48 hrs by sulforhodamine B assay; settings: IGROV-1, 48 h, read-out: Activity
[11] = Antiproliferative activity against human HL-60(TB) cells assessed as cell growth at 10^-4 M after 48 hrs by sulforhodamine B assay; settings: HL-60, 48 h, read-out: Activity
[12] = Antiproliferative activity against human PC3 cells assessed as cell growth at 10^-8 M after 48 hrs by sulforhodamine B assay; settings: PC-3, 48 h, read-out: Activity
[13] = test system: SK-MEL-5; assay: Antiproliferative activity against human SK-MEL-5 cells assessed as cell growth at 10^-4 M after 48 hrs by sulforhodamine B assay; settings: SK-MEL-5, 48 h, read-out: Activity
[14] = test system: U-251; assay: Antiproliferative activity against human U251 cells assessed as cell growth at 10^-6 M after 48 hrs by sulforhodamine B assay; settings: U-251, 48 h, read-out: Activity
[15] = Antiproliferative activity against human TK10 cells assessed as cell growth at 10^-7 M after 48 hrs by sulforhodamine B assay; settings: TK-10, 48 h, read-out: Activity
[16] = Antiproliferative activity against human DU145 cells assessed as cell growth at 10^-6 M after 48 hrs by sulforhodamine B assay; settings: DU-145, 48 h, read-out: Activity
[17] = test system: NCI-H23; assay: Antiproliferative activity against human NCI-H23 cells assessed as cell growth at 10^-7 M after 48 hrs by sulforhodamine B assay; settings: NCI-H23, 48 h, read-out: Activity
[18] = test system: M14; assay: Antiproliferative activity against human M14 cells assessed as cell growth at 10^-8 M after 48 hrs by sulforhodamine B assay; settings: M14, 48 h, read-out: Activity
[19] = test system: EKVX; assay: Antiproliferative activity against human EKVX cells assessed as cell growth at 10^-8 M after 48 hrs by sulforhodamine B assay; settings: read-out: Activity
[20] = test system: SN12C; assay: Antiproliferative activity against human SN12C cells assessed as cell growth at 10^-8 M after 48 hrs by sulforhodamine B assay; settings: read-out: Activity
[21] = Antiproliferative activity against human SNB75 cells assessed as cell growth at 10^-7 M after 48 hrs by sulforhodamine B assay; settings: SNB-75, 48 h, read-out: Activity
[22] = Antiproliferative activity against human HL-60(TB) cells assessed as cell growth at 10^-6 M after 48 hrs by sulforhodamine B assay; settings: HL-60, 48 h, read-out: Activity
[23] = test system: NCI-H522; assay: Antiproliferative activity against human NCI-H522 cells assessed as cell growth at 10^-4 M after 48 hrs by sulforhodamine B assay; settings: NCI-H522, 48 h, read-out: Activity
[24] = Antiproliferative activity against human LOXIMVI cells assessed as cell growth at 10^-7 M after 48 hrs by sulforhodamine B assay; settings: LOX IMVI, read-out: Activity
[25] = Antiproliferative activity against human LOXIMVI cells assessed as cell growth at 10^-6 M after 48 hrs by sulforhodamine B assay; settings: LOX IMVI, read-out: Activity
[26] = Antiproliferative activity against human MOLT4 cells assessed as cell growth at 10^-6 M after 48 hrs by sulforhodamine B assay; settings: MOLT-4, 48 h, read-out: Activity
[27] = Antiproliferative activity against human PC3 cells assessed as cell growth at 10^-7 M after 48 hrs by sulforhodamine B assay; settings: PC-3, 48 h, read-out: Activity
[28] = test system: KM12; assay: Antiproliferative activity against human KM12 cells assessed as cell growth at 10^-4 M after 48 hrs by sulforhodamine B assay; settings: KM12, 48 h, read-out: Activity
[29] = Antiproliferative activity against human HCC2998 cells assessed as cell growth at 10^-6 M after 48 hrs by sulforhodamine B assay; settings: HCC 2998, 48 h, read-out: Activity
[30] = Antiproliferative activity against human HCT116 cells assessed as cell growth at 10^-6 M after 48 hrs by sulforhodamine B assay; settings: HCT-116, 48 h, read-out: Activity
[31] = test system: SK-MEL-28; assay: Antiproliferative activity against human SK-MEL-28 cells assessed as cell growth at 10^-7 M after 48 hrs by sulforhodamine B assay; settings: SK-MEL-28, 48 h, read-out: Activity
[32] = test system: A549; assay: Antiproliferative activity against human A549/ATCC cells assessed as cell growth at 10^-6 M after 48 hrs by sulforhodamine B assay; settings: A549, 48 h, read-out: Activity
[33] = Antiproliferative activity against human RXF393 cells assessed as cell growth at 10^-6 M after 48 hrs by sulforhodamine B assay; settings: RXF 393, 48 h, read-out: Activity
[34] = Antiproliferative activity against human OVCAR4 cells assessed as cell growth at 10^-6 M after 48 hrs by sulforhodamine B assay; settings: OVCAR-4, 48 h, read-out: Activity
[35] = Antiproliferative activity against human OVCAR8 cells assessed as cell growth at 10^-6 M after 48 hrs by sulforhodamine B assay; settings: OVCAR-8, 48 h, read-out: Activity

CNC(=O)c1cc(Oc2ccc(NC(=O)Nc3ccc(Cl)c(C(F)(F)F)c3)cc2)ccn1 [SORAFENIB]
GI50 [1]: 2.51 µM | TGI [1]: 15.9 µM | CC50 [1]: 79.4 µM | GI50 [2]: 3.16 µM | TGI [2]: 12.6 µM | GI50 [3]: 2.51 µM | TGI [3]: 12.6 µM | GI50 [4]: 2.51 µM | TGI [4]: 12.6 µM | CC50 [4]: 39.8 µM | GI50 [5]: 3.16 µM | TGI [5]: 5.01 µM | CC50 [5]: 15.8 µM | GI50 [6]: 3.98 µM | TGI [6]: 10 µM | CC50 [6]: 50.1 µM | GI50 [7]: 2 µM | TGI [7]: 5.01 µM | CC50 [7]: 20 µM | TGI [8]: 7.94 µM | CC50 [8]: 100 µM

CNC(=O)c1cc(Oc2ccc3nc(NC(=O)c4cc(C(F)(F)F)cc(C(F)(F)F)c4)sc3c2)ccn1
GI50 [1]: 4.26 µM | TGI [1]: 27 µM | CC50 [1]: > 100 µM | growth at 100 µM [9]: -82% | growth at 0.01 µM [10]: 106% | growth at 100 µM [11]: -45% | growth at 0.01 µM [12]: 96% | GI50 [2]: 2.32 µM | LC50 [2]: 32.3 µM | TGI [2]: 6.64 µM | growth at 100 µM [13]: -89% | growth at 1 µM [14]: 99% | growth at 0.1 µM [15]: 94% | GI50 [3]: 3.26 µM | LC50 [3]: 43.2 µM | TGI [3]: 11.8 µM | growth at 1 µM [16]: 94% | growth at 0.1 µM [17]: 95% | growth at 0.01 µM [18]: 99% | growth at 0.01 µM [19]: 94% | growth at 0.01 µM [20]: 98% | growth at 0.1 µM [21]: 77% | GI50 [4]: 7.56 µM | TGI [4]: 63.8 µM | CC50 [4]: > 100 µM | growth at 1 µM [22]: 114% | growth at 100 µM [23]: -61% | growth at 0.1 µM [24]: 96% | growth at 1 µM [25]: 94% | GI50 [5]: 3.05 µM | TGI [5]: 12.4 µM | CC50 [5]: > 100 µM | growth at 1 µM [26]: 85% | growth at 0.1 µM [27]: 94% | growth at 100 µM [28]: -52% | growth at 1 µM [29]: 102% | GI50 [6]: 3.37 µM | TGI [6]: 13.3 µM | CC50 [6]: 74.9 µM | growth at 1 µM [30]: 99% | growth at 0.1 µM [31]: 96% | GI50 [7]: 2.89 µM | TGI [7]: 8.12 µM | CC50 [7]: > 100 µM | growth at 1 µM [32]: 105% | GI50 [8]: 3.15 µM | TGI [8]: 13.3 µM | CC50 [8]: > 100 µM | growth at 1 µM [33]: 97% | growth at 1 µM [34]: 89% | growth at 1 µM [35]: 90%
